We go through 31 molecules from patent US11021468B2, “TGF-ß inhibitors” (Rigel Pharmaceuticals, Inc., priority 2015, dated 2021).

In one test the test system is GDF8. The test can be described thus: AlphaScreen SureFire SMAD3 (p-Ser423/425) assay, GDF8-stimulated (GDF pSMAD (MPC11)). The note with it: p-SMAD-3 (Ser423/425). Type of test: cell-based. The source says: (§1) Example 2: AlphaScreen® SureFire® SMAD3 (p-Ser423/425) Assay
(§2) The p-SMAD-3 (Ser423/425) SureFire® assay has been designed to measure the phosphorylation of endogenous cellular p-SMAD-3 (Ser423/425) in cell lysates and is a system for the screening of both modulators of receptor activation (e.g. agonists and antagonists) as well as agents acting intracellularly, such as small molecule inhibitors of upstream events. The assay will measure p-SMAD-3 (Ser423/425) activation by either cloned or endogenous receptors, and can be applied to primary cells.
(§3) P-SMAD-3 (Ser423/425) SureFire® Assay Protocols
(§4) 96-well Assay Protocol for 293FT and RMS13 adherent cells can be carried out manually or in high throughput with liquid handling robots.
(§5) The cells (80 μL of cells for 96 well plates) were plated in collagen coated tissue culture plates in RPMI or FreeStyle medium (Invitrogen) and incubated overnight. For manual analysis, 6 plates for GDF8, 6 plates for TGFβ, and optionally 6 plates for Alk5ca(ALK5 constitutively active) were used.
(§6) The compound dilution plates were prepared as follows: 12 μL of DMSO was transferred into first column of 96-well plate, and 16 μL of DMSO was transferred into columns 2-12 of the 96-well plate. 12 μL of compound solution was transferred into first column of the DMSO-containing 96-well plate. Three-fold dilution was performed up to column 10 of the DMSO-containing 96-well plate.
(§7) The plate containing cells were treated with compounds for about 10 minutes, and then ligand was added. GDF8 or TGFb was added to plates to stimulate. 293FL cells were stimulated for 90 minutes at 37° C.; and RMS13 cells were stimulated for 60 minutes at 37° C. The medium was then removed from the cells, and 1× Lysis Buffer (about 25 μL) was added and the plate was gently agitated on plate shaker for 5-10 minutes.
(§8) The lysate (5 μL) was then placed into 384-well shallow plates avoiding the generation of bubbles. To this, the Reaction Buffer+Activation Buffer+AlphaScreen® Acceptor beads mixture (5 μL) was added. The plate was sealed with adhesive cover and shielded from light (e.g., with metal foil), and agitated gently on plate shaker for 2 hours at room temperature.
(§9) Dilution buffer+AlphaScreen® Donor beads (2 μL) was then added, and the plate was intubated on the plate shaker for an additional 1½ hours. After completion, the plate was read on Synergy-4 or Enspire plate reader, using AlphaScreen® pSMAD3® settings.
(§10) Representative results for inhibition of GDF8 (data=GDF pSMAD (MPC11) (μM)) and TGF-β (data=TGF-β pSMAD (MPC-11) (μM)) signaling are shown in Table 1: […]
On the technique in general: Alpha assays give light when donor and acceptor beads are brought close together.

For the next test, the system named is TGF-β. The test can be described thus: AlphaScreen SureFire SMAD3 (p-Ser423/425) assay, TGF-β-stimulated (TGF-β pSMAD (MPC-11)). The note with it: p-SMAD-3 (Ser423/425). Type of test: cell-based.
From the text: as §1, §2, §3, §4, §5, §6, §7, §8, §9, §10

The mark [1] stands for this setting: Mus musculus, MPC-11, inhibition of GDF8 signaling.
The mark [2] stands for this setting: Mus musculus, MPC-11, inhibition of TGF-β signaling.

Each structure is given as a SMILES string.

One may read the IC50 as the concentration that inhibits the measured activity by half. Regarding `Cc1ccc(C)c(-c2nccc(Nc3ccc4c(cnn4C(=O)CN(C)C)c3)n2)c1` [Compound 1, 2-(Dimethylamino)-1-(5-((2-(2,5-dimethylphenyl)pyrimidin-4-yl)amino)-1H-indazol-1-yl)ethan-1-one], the IC50 with GDF8 (setting [1]) was found to be 47.2 nM; in the test on TGF-β (setting [2]), 560 nM.
Taken in the same sequence, the figures for `Cc1cccc(-c2nc(Nc3cnc4[nH]ncc4c3)c3ccccc3n2)n1` [Compound 2, 2-(6-Methylpyridin-2-yl)-N-(1H-pyrazolo[3,4-b]pyridin-5-yl)quinazolin-4-amine] were 144 nM and 318 nM.
Taken in the same sequence, the figures for `Fc1ccc(-c2nccc(Nc3cnc4[nH]ncc4c3)n2)cc1F` [Compound 3, N-(2-(3,4-Difluorophenyl)pyrimidin-4-yl)-1H-pyrazolo[3,4-b]pyridin-5-amine] were 382 nM and 1530 nM.
Taken in the same sequence, the figures for `Fc1ccc(-c2nccc(Nc3cnc4[nH]ncc4c3)n2)cc1` [Compound 4, N-(2-(4-Fluorophenyl)pyrimidin-4-yl)-1H-pyrazolo[3,4-b]pyridin-5-amine] were 171 nM and 840 nM.
Turning to `Fc1ccc(-c2nc(Nc3ccc4[nH]ncc4c3)c3cc[nH]c3n2)cc1` [Compound 5, 2-(4-Fluorophenyl)-N-(1H-indazol-5-yl)-7H-pyrrolo[2,3-d]pyrimidin-4-amine], the IC50 in the test on GDF8 (setting [1]) was 66.1 nM; in the test on TGF-β (setting [2]) it was 751 nM.
As to `Fc1ccc(-c2nc(Nc3ccc4[nH]ncc4c3)c3cc[nH]c3n2)cc1F` [Compound 6, 2-(3,4-Difluorophenyl)-N-(1H-indazol-5-yl)-7H-pyrrolo[2,3-d]pyrimidin-4-amine], the figures for the IC50 in the test on GDF8 (setting [1]) and with TGF-β (setting [2]) were 264 nM and 1680 nM, respectively.
Consider `Fc1ccc(-c2nc(Nc3ccc4[nH]ncc4c3)c3cc[nH]c3n2)c(F)c1` [Compound 7, 2-(2,4-Difluorophenyl)-N-(1H-indazol-5-yl)-7H-pyrrolo[2,3-d]pyrimidin-4-amine], for which the results for the IC50 with GDF8 (setting [1]) and in the test on TGF-β (setting [2]) were 119 nM and 874 nM, respectively.
Regarding `Cc1cc(-c2nc(Nc3ccc4[nH]ncc4c3)c3cc[nH]c3n2)ccc1F` [Compound 8, 2-(4-Fluoro-3-methylphenyl)-N-(1H-indazol-5-yl)-7H-pyrrolo[2,3-d]pyrimidin-4-amine], the IC50 in the test with GDF8 (setting [1]) came out at 84.2 nM; in the test with TGF-β (setting [2]), 747 nM.
Taken in the same sequence, the figures for `Cc1cccc(-c2nc(Nc3ccc4[nH]ncc4c3)c3cc[nH]c3n2)c1` [Compound 9, N-(1H-Indazol-5-yl)-2-(3-methylphenyl)-7H-pyrrolo[2,3-d]pyrimidin-4-amine] were 336 nM and 1460 nM.
`Fc1ccc(-c2nc(Nc3ccc4[nH]ncc4c3)c3[nH]ccc3n2)cc1` [Compound 10, 2-(4-Fluorophenyl)-N-(1H-indazol-5-yl)-5H-pyrrolo[3,2-d]pyrimidin-4-amine]: the IC50 in the test on GDF8 (setting [1]) amounted to 644 nM; with TGF-β (setting [2]), 5130 nM.
For `Cc1cccc(-c2nc(Nc3ccc4[nH]ncc4c3)c3[nH]ccc3n2)c1` [Compound 11, N-(1H-Indazol-5-yl)-2-(3-methylphenyl)-5H-pyrrolo[3,2-d]pyrimidin-4-amine] the same measures were 917 nM and 5330 nM.
Taken in the same sequence, the figures for `Cc1cc(F)ccc1-c1ncc(F)c(Nc2cnc3[nH]ncc3c2)n1` [Compound 12, N-(5-Fluoro-2-(4-fluoro-2-methylphenyl)pyrimidin-4-yl)-1H-pyrazolo[3,4-b]pyridin-5-amine] were 481 nM and 1590 nM.
For `Cc1cnc(-c2cccc(F)c2)nc1Nc1cnc2[nH]ncc2c1` [Compound 13, N-(2-(3-Fluorophenyl)-5-methylpyrimidin-4-yl)-1H-pyrazolo[3,4-b]pyridin-5-amine] the same measures were 883 nM and 2720 nM.
`Cc1cnc(-c2ccc(F)cc2)nc1Nc1cnc2[nH]ncc2c1` [Compound 14, N-(2-(4-Fluorophenyl)-5-methylpyrimidin-4-yl)-1H-pyrazolo[3,4-b]pyridin-5-amine]: the IC50 in the test on GDF8 (setting [1]) worked out at 306 nM; with TGF-β (setting [2]), 732 nM.
As for `Cc1cnc(-c2ccc(F)c(F)c2)nc1Nc1cnc2[nH]ncc2c1` [Compound 15, N-(2-(3,4-Difluorophenyl)-5-methylpyrimidin-4-yl)-1H-pyrazolo[3,4-b]pyridin-5-amine], the IC50 was determined as 685 nM in the test on GDF8 (setting [1]) and 876 nM in the test with TGF-β (setting [2]).
Taken in the same sequence, the figures for `Cc1cccc(-c2ncc(C)c(Nc3cnc4[nH]ncc4c3)n2)c1` [Compound 16, N-(2-(3-Methylphenyl)-5-methylpyrimidin-4-yl)-1H-pyrazolo[3,4-b]pyridin-5-amine] were 289 nM and 410 nM.
Taken in the same sequence, the figures for `Fc1ccccc1-c1nccc(Nc2ccc3[nH]ncc3c2)n1` [Compound 17, N-(2-(2-Fluorophenyl)pyrimidin-4-yl)-1H-indazol-5-amine] were 220 nM and 2170 nM.
For `Fc1cccc(-c2nccc(Nc3ccc4[nH]ncc4c3)n2)c1` [Compound 18, N-(2-(3-Fluorophenyl)pyrimidin-4-yl)-1H-indazol-5-amine], the values for the IC50 in the test with GDF8 (setting [1]) and with TGF-β (setting [2]) were 154 nM and 1360 nM, respectively.
Taken in the same sequence, the figures for `COc1cccc(-c2nccc(Nc3ccc4[nH]ncc4c3)n2)c1` [Compound 19, N-(2-(3-Methoxyphenyl)pyrimidin-4-yl)-1H-indazol-5-amine] were 766 nM and 4050 nM.
For `c1ccc(-c2nccc(Nc3ccc4[nH]ncc4c3)n2)cc1` [Compound 20, N-(2-Phenylpyrimidin-4-yl)-1H-indazol-5-amine] the same measures were 358 nM and 1740 nM.
Taken in the same sequence, the figures for `Cc1ccccc1-c1nccc(Nc2ccc3[nH]ncc3c2)n1` [Compound 21, N-(2-(2-Methylphenyl)pyrimidin-4-yl)-1H-indazol-5-amine] were 201 nM and 1230 nM.
`Fc1ccc(-c2nccc(Nc3ccc4[nH]ncc4c3)n2)cc1F` [Compound 22, N-(2-(3,4-Difluorophenyl)pyrimidin-4-yl)-1H-indazol-5-amine]: the IC50 is 32.1 nM in the test with GDF8 (inhibition of GDF8 signaling) and 112 nM in the test with TGF-β (inhibition of TGF-β signaling).
`Fc1cc2[nH]ncc2cc1Nc1ccnc(-c2ccccc2F)n1` [Compound 23, 6-Fluoro-N-(2-(2-fluorophenyl)pyrimidin-4-yl)-1H-indazol-5-amine]: the values for the IC50 in the test on GDF8 (setting [1]) and in the test with TGF-β (setting [2]) were 257 nM and 1320 nM, respectively.
For `Fc1ccccc1-c1ncc(F)c(Nc2ccc3[nH]ncc3c2)n1` [Compound 24, N-(5-Fluoro-2-(2-fluorophenyl)pyrimidin-4-yl)-1H-indazol-5-amine] the same measures were 846 nM and 3990 nM.
Consider `Fc1ccc(-c2nccc(Nc3ccc4[nH]ncc4c3)n2)cc1F` [Compound 25, N-(2-(3,4-Difluorophenyl)pyrimidin-4-yl)-1H-indazol-5-amine], for which the values for the IC50 with GDF8 (inhibition of GDF8 signaling) and in the test with TGF-β (inhibition of TGF-β signaling) were 91.1 nM and 326 nM, respectively.
Take `Cc1ccc(F)cc1-c1nccc(Nc2ccc3[nH]ncc3c2)n1` [Compound 26, N-(2-(5-fluoro-2-methylphenyl)pyrimidin-4-yl)-1H-indazol-5-amine]: the values for the IC50 with GDF8 (setting [1]) and with TGF-β (setting [2]) were 126 nM and 1000 nM, respectively.
Taken in the same sequence, the figures for `Fc1cc(F)cc(-c2nccc(Nc3ccc4[nH]ncc4c3)n2)c1` [Compound 27, N-(2-(3,5-Difluorophenyl)pyrimidin-4-yl)-1H-indazol-5-amine] were 287 nM and 2200 nM.
Taken in the same sequence, the figures for `COc1ccc(-c2nccc(Nc3ccc4[nH]ncc4c3)n2)cc1F` [Compound 28, N-(2-(3-Fluoro-4-methoxyphenyl)pyrimidin-4-yl)-1H-indazol-5-amine] were 363 nM and 2140 nM.
For `N#Cc1cccc(-c2nccc(Nc3ccc4[nH]ncc4c3)n2)c1` [Compound 29, N-(2-(3-Cyanophenyl)pyrimidin-4-yl)-1H-indazol-5-amine] the same measures were 21.5 nM and 85.3 nM.
Turning to `Cc1ccc(C)c(-c2nccc(Nc3ccc4[nH]ncc4c3)n2)c1` [Compound 30, N-(2-(2,5-Dimethylphenyl)pyrimidin-4-yl)-1H-indazol-5-amine], the IC50 with GDF8 (setting [1]) turned out to be 193 nM; in the test with TGF-β (setting [2]), 842 nM.
Taken in the same sequence, the figures for `Nc1cccc(-c2nccc(Nc3ccc4[nH]ncc4c3)n2)c1` [Compound 31, N-(2-(3-Aminophenyl)pyrimidin-4-yl)-1H-indazol-5-amine] were 463 nM and 2710 nM.
